Converted amounts (≈) assume the structure as drawn.
Assays:
MCF7 = test: Cytotoxicity against human MCF7 cells after 72 hrs by MTT assay; format: functional, cell-based; settings: MCF7, 72 h
[1] = Solubility of the compound in phosphate buffered saline by UV-spectroscopic analysis; format: physicochemical
HepG2 = test: Cytotoxicity against human HepG2 cells after 72 hrs by MTT assay; format: functional, cell-based; settings: HepG2, 72 h
[2] = Prodrug conversion in Sprague-Dawley rat plasma assessed as 10-hydroxycamptothecin formation at 4 mg measured within 2 hrs by UV-based RP-HPLC analysis; format: ADME, cell-free
[3] = Prodrug conversion in Sprague-Dawley rat plasma assessed as SN38 formation at 4 mg measured within 2 hrs by UV-based RP-HPLC analysis; format: ADME, cell-free
[4] = phosphate buffered saline, read-out: solubility

With `CC[C@@]1(O)C(=O)OCc2c1cc1n(c2=O)Cc2cc3cc(OCCOCCOCCOCCO)ccc3nc2-1` the IC50 (MCF7) was 74.6 µM, the solubility [1, 4] was 0.95 mg/mL (≈ 1.76 mM) and the IC50 (HepG2) was 41.8 µM.

Work on `CC[C@@]1(O)C(=O)OCc2c1cc1n(c2=O)Cc2cc3cc(OC(=O)OCCOCCOCCOCCOCCOCCOCCOCCOCCOCCOCCOCCOCCOCCOCCOCCOCCOCCOCCOCCOCCOCCOCCOCCOC)ccc3nc2-1` yielded an IC50 (MCF7) of 6.76 µM and an IC50 (HepG2) of 2.69 µM.

Molecule `CC[C@@]1(O)C(=O)OCc2c1cc1n(c2=O)Cc2cc3cc(OC(=O)OCCOCCOCCOCCOCCOCCOCCOCCOCCOCCOCCOCCOCCOCCOC)ccc3nc2-1` has an IC50 (MCF7) of 5.61 µM and an IC50 (HepG2) of 1.79 µM.

Molecule `CC[C@@]1(O)C(=O)OCc2c1cc1n(c2=O)Cc2cc3cc(OC(=O)OCCOCCOCCOCCOCCOCCOCCOCCOCCOCCOCCOCCOCCOCCOCCOC)ccc3nc2-1` has an IC50 (MCF7) of 4.47 µM and an IC50 (HepG2) of 1.71 µM.

`CC[C@@]1(O)C(=O)OCc2c1cc1n(c2=O)Cc2cc3cc(OCCOCCOCCOCCOCCOCCOCCOCCOCCOCCOCCO)ccc3nc2-1` showed an IC50 (MCF7) greater than 100 µM and an IC50 (HepG2) greater than 100 µM.

`CC[C@@]1(OC(=O)OCCOCCOCCOCCOCCOCCOCCOCCOCCOCCOCCOCCOCCOCCOCCOCCOC)C(=O)OCc2c1cc1n(c2=O)Cc2cc3ccccc3nc2-1` gave an IC50 (MCF7) of 6.17 µM, a solubility [1, 4] of 136 mg/mL (≈ 122 mM) and an IC50 (HepG2) of 4.72 µM.

`CC[C@@]1(O)C(=O)OCc2c1cc1n(c2=O)Cc2cc3cc(OCCOCCOCCOCCOCCO)ccc3nc2-1` gave an IC50 (MCF7) of 95.8 µM, a solubility [1, 4] of 6.34 mg/mL (≈ 10.8 mM) and an IC50 (HepG2) of 70.3 µM.

`CC[C@@]1(OC(=O)OCCOCCOCCOCCOCCOCCOCCOCCOCCOCCOCCOCCOCCOCCOCCOC)C(=O)OCc2c1cc1n(c2=O)Cc2cc3ccccc3nc2-1` showed an IC50 (MCF7) of 8.53 µM, a solubility [1, 4] of 114 mg/mL (≈ 106 mM) and an IC50 (HepG2) of 7.07 µM.

Work on `CC[C@@]1(O)C(=O)OCc2c1cc1n(c2=O)Cc2cc3cc(OCCOCCOCCOCCOCCOCCOCCOCCO)ccc3nc2-1` yielded an IC50 (MCF7) greater than 100 µM, a solubility [1, 4] of 249 mg/mL (≈ 347 mM) and an IC50 (HepG2) greater than 100 µM.

Work on `CC[C@@]1(O)C(=O)OCc2c1cc1n(c2=O)Cc2cc3cc(OC(=O)OCCOCCOCCOCCOCCOCCOCCOCCOCCOCCOC)ccc3nc2-1` yielded an IC50 (MCF7) of 5.44 µM, a solubility [1, 4] of 142 mg/mL (≈ 165 mM) and an IC50 (HepG2) of 2.08 µM.

For `CC[C@@]1(O)C(=O)OCc2c1cc1n(c2=O)Cc2cc3cc(OC(=O)OCCOCCOCCOCCOCCOCCOCCOCCOC)ccc3nc2-1`, the IC50 (MCF7) was 5.39 µM, the solubility [1, 4] was 85.1 mg/mL (≈ 110 mM) and the IC50 (HepG2) was 3.06 µM.

`CC[C@@]1(O)C(=O)OCc2c1cc1n(c2=O)Cc2cc3cc(OC(=O)OCCOCCOCCOCCOCCOCCOCCOCCOCCOCCOCCOC)ccc3nc2-1` showed an IC50 (MCF7) of 4.64 µM and an IC50 (HepG2) of 2.51 µM.

`CC[C@@]1(OC(=O)OCCOCCOCCOCCOCCOCCOCCOCCOCCOCCOCCOCCOCCOCCOCCOCCOCCOCCOCCOC)C(=O)OCc2c1cc1n(c2=O)Cc2cc3ccccc3nc2-1` gave an IC50 (MCF7) of 7.43 µM, a solubility [1, 4] of 143 mg/mL (≈ 115 mM) and an IC50 (HepG2) of 3.61 µM.

Molecule `CC[C@@]1(OC(=O)OCCOCCOCCOCCOCCOCCOCCOCCOCCOCCOCCOCCOCCOCCOC)C(=O)OCc2c1cc1n(c2=O)Cc2cc3ccccc3nc2-1` has an IC50 (MCF7) of 7.43 µM, a solubility [1, 4] of 94.1 mg/mL (≈ 91.9 mM) and an IC50 (HepG2) of 5.15 µM.

With `CC[C@@]1(O)C(=O)OCc2c1cc1n(c2=O)Cc2cc3cc(O)ccc3nc2-1` [HYDROXYCAMPTOTHECIN] the IC50 (MCF7) was 3.58 µM, the solubility ([1]; buffer) was 0.00094 mg/mL (≈ 0.00258 mM) and the IC50 (HepG2) was 1.47 µM.

With `CC[C@@]1(O)C(=O)OCc2c1cc1n(c2=O)Cc2cc3cc(OCCOCCOCCOCCOCCOCCOCCOCCOCCO)ccc3nc2-1` the IC50 (MCF7) was greater than 100 µM and the IC50 (HepG2) was greater than 100 µM.

`CC[C@@]1(OC(=O)OCCOCCOCCOCCOCCOCCOCCOCCOCCOCCOCCOCCOCCOCCOCCOCCOCCOCCOCCOCCOC)C(=O)OCc2c1cc1n(c2=O)Cc2cc3ccccc3nc2-1` showed an IC50 (MCF7) of 8.09 µM, a solubility [1, 4] of 183 mg/mL (≈ 142 mM) and an IC50 (HepG2) of 6.87 µM.

With `CC[C@@]1(O)C(=O)OCc2c1cc1n(c2=O)Cc2cc3cc(OC(=O)OCCOCCOCCOCCOCCOCCOCCOCCOCCOCCOCCOCCOCCOCCOCCOCCOC)ccc3nc2-1` the IC50 (MCF7) was 6.16 µM and the IC50 (HepG2) was 2.75 µM.

Molecule `CC[C@@]1(O)C(=O)OCc2c1cc1n(c2=O)Cc2cc3cc(OC(=O)OCCOCCOCCOCCOCCOCCOCCOCCOCCOCCOCCOCCOCCOCCOCCOCCOCCOCCOCCOC)ccc3nc2-1` has an IC50 (MCF7) of 6.09 µM and an IC50 (HepG2) of 2.2 µM.

For `CCc1c2c(nc3ccc(O)cc13)-c1cc3c(c(=O)n1C2)COC(=O)[C@]3(O)CC` [7-ETHYL-10-HYDROXYCAMPTOTHECIN], the IC50 (MCF7) was 1.25 µM, the solubility [1, 4] was 0.00087 mg/mL (≈ 0.00222 mM) and the IC50 (HepG2) was 0.48 µM.

In the case of `CC[C@@]1(O)C(=O)OCc2c1cc1n(c2=O)Cc2cc3cc(OCCOCCOCCOCCOCCOCCOCCOCCOCCOCCOCCOCCO)ccc3nc2-1`, the IC50 (MCF7) is reported as greater than 100 µM and the IC50 (HepG2) is reported as greater than 100 µM.

For `CC[C@@]1(O)C(=O)OCc2c1cc1n(c2=O)Cc2cc3cc(OC(=O)OCCOCCOCCOCCOCCOCCOCCOCCOCCOCCOCCOCCOC)ccc3nc2-1`, the IC50 (MCF7) was 2.85 µM, the IC50 (HepG2) was 2.21 µM and the Drug metabolism [2] was “Metabolite_Detected”. For the same molecule, the Drug metabolism [3] was “Metabolite_Detected”.

Work on `CC[C@@]1(O)C(=O)OCc2c1cc1n(c2=O)Cc2cc3cc(OCCOCCOCCOCCOCCOCCOCCO)ccc3nc2-1` yielded an IC50 (MCF7) greater than 100 µM, a solubility [1, 4] of 73.3 mg/mL (≈ 109 mM) and an IC50 (HepG2) of 62.4 µM.

Molecule `CC[C@@]1(OC(=O)OCCOCCOCCOCCOCCOCCOCCOCCOC)C(=O)OCc2c1cc1n(c2=O)Cc2cc3ccccc3nc2-1` has an IC50 (MCF7) of 7.42 µM, a solubility [1, 4] of 0.38 mg/mL (≈ 0.501 mM) and an IC50 (HepG2) of 5.47 µM.

With `CC[C@@]1(OC(=O)OCCOCCOCCOCCOCCOCCOCCOCCOCCOCCOC)C(=O)OCc2c1cc1n(c2=O)Cc2cc3ccccc3nc2-1` the IC50 (MCF7) was 10.3 µM, the solubility [1, 4] was 0.52 mg/mL (≈ 0.614 mM) and the IC50 (HepG2) was 4.48 µM.

`CCc1c2c(nc3ccc(OC(=O)OCCOCCOCCOCCOCCOCCOCCOCCOCCOCCOCCOCCOCCOCCOCCOCCOCCOCCOCCOCCOC)cc13)-c1cc3c(c(=O)n1C2)COC(=O)[C@]3(O)CC` gave an IC50 (MCF7) of 3.08 µM and an IC50 (HepG2) of 1.98 µM.

In the case of `CC[C@@]1(O)C(=O)OCc2c1cc1n(c2=O)Cc2cc3ccccc3nc2-1` [CAMPTOTHECIN], the IC50 (MCF7) is reported as 0.68 µM, the solubility [1, 4] is reported as 0.00069 mg/mL (≈ 0.00198 mM) and the IC50 (HepG2) is reported as 0.66 µM.

Work on `CC[C@@]1(OC(=O)OCCOCCOCCOCCOCCOCCOCCOCCOCCOCCOCCOCCOC)C(=O)OCc2c1cc1n(c2=O)Cc2cc3ccccc3nc2-1` yielded an IC50 (MCF7) of 3.36 µM, a solubility [1, 4] of 82.8 mg/mL (≈ 88.6 mM) and an IC50 (HepG2) of 5.97 µM.

Molecule `CC[C@@]1(OC(=O)OCCOCCOCCOCCOCCOCCOCCOCCOCCOCCOCCOC)C(=O)OCc2c1cc1n(c2=O)Cc2cc3ccccc3nc2-1` has an IC50 (MCF7) of 8.48 µM, a solubility [1, 4] of 79.5 mg/mL (≈ 89.2 mM) and an IC50 (HepG2) of 4.78 µM.

For `CCc1c2c(nc3ccc(OC(=O)OCCOCCOCCOCCOCCOCCOCCOCCOCCOCCOCCOCCOCCOCCOCCOC)cc13)-c1cc3c(c(=O)n1C2)COC(=O)[C@]3(O)CC`, the IC50 (MCF7) was 4.72 µM, the IC50 (HepG2) was 2.31 µM and the Drug metabolism [2] was “Metabolite_Detected”. The Drug metabolism [3] was “Metabolite_Detected”.

`CC[C@@]1(O)C(=O)OCc2c1cc1n(c2=O)Cc2cc3cc(OCCOCCOCCOCCOCCOCCOCCOCCOCCOCCO)ccc3nc2-1` showed an IC50 (MCF7) greater than 100 µM and an IC50 (HepG2) greater than 100 µM.

Work on `CC[C@@]1(OC(=O)OCCOCCOCCOCCOCCOCCOCCOCCOCCOCCOCCOCCOCCOCCOCCOCCOCCOCCOCCOCCOCCOCCOCCOCCOC)C(=O)OCc2c1cc1n(c2=O)Cc2cc3ccccc3nc2-1` yielded an IC50 (MCF7) of 8.62 µM, a solubility [1, 4] of 272 mg/mL (≈ 186 mM) and an IC50 (HepG2) of 6.17 µM.

For `CC[C@@]1(O)C(=O)OCc2c1cc1n(c2=O)Cc2cc3cc(OC(=O)OCCOCCOCCOCCOCCOCCOCCOCCOCCOCCOCCOCCOCCOCCOCCOCCOCCOCCOCCOCCOC)ccc3nc2-1`, the IC50 (MCF7) was 6.88 µM and the IC50 (HepG2) was 3.62 µM.

Molecule `CC[C@@]1(O)C(=O)OCc2c1cc1n(c2=O)Cc2cc3cc(OCCOCCOCCOCCOCCOCCO)ccc3nc2-1` has an IC50 (MCF7) greater than 100 µM, a solubility [1, 4] of 11 mg/mL (≈ 17.4 mM) and an IC50 (HepG2) of 50 µM.

Reference: ChEMBL document CHEMBL4330112, “Monodisperse oligoethylene glycols modified Camptothecin, 10-Hydroxycamptothecin and SN38 prodrugs” (Bioorg Med Chem Lett, 2019)
